Experimental data reported in US12171779B2, “Regulated drug delivery via controlled degradable chondroitin sulfate particles” (UNIVERSITY OF SOUTH FLORIDA, priority 2021, dated 2024).

Tests used:
[1] = Total phenolic content by Folin-Ciocalteau (FC) method; conditions: 1000 μg/mL concentration
Description: Total phenolic content of the particles was evaluated by Folin-Ciocalteau (FC) method. Briefly, 0.1 mL of 1 mg/mL microgel suspensions were reacted with 1.25 mL of 0.2 N solution of FC phenol reagent for 4 min. Next, 1 mL of 0.7 M sodium bicarbonate solution was added to this mixture and kept in the dark for 2 hours. Then, the total phenol content of the microgels was measured by using a UV/Vis spectrophotometer (T80+PG Instrument) at 760 nm. The antioxidant activity of the microgels was expressed as μg/mL gallic acid equivalent. The analysis was repeated three times, and the values are reported as the average values with standard deviations.

[2] = cited from earlier work

Structure (SMILES): O=C(/C=C/c1ccc(O)c(O)c1)O[C@H](Cc1ccc(O)c(O)c1)C(=O)O [RA, Rosmarinic acid]
- Total phenol content (TPC), gallic acid equivalent [1]: 556±35 μg/mL gallic acid equivalent
- IC50 (50% inhibition of DPPH radical) [2]: 1.3 ± 0.1 µg/mL
